According to patent US7960397B2, “6,9-disubstituted purine derivatives and their use as cosmetics and cosmetic compositions” (Institute of Experimental Botany, Academy of Sciences of …, priority 2007, dated 2011):

Experiments:
[1] = test system: human diploid fibroblasts (HCA cells, HCA20, HCA40, HCA60); test: Senescent cells (β-galactosidase staining) in culture of human fibroblasts; format: cell-based; conditions: for SENESCENT CELLS (%) HCA20: human fibroblasts passage 20 (HCA20); for SENESCENT CELLS (%) HCA40: human fibroblasts passage 40 (HCA40); for SENESCENT CELLS (%) HCA60: human fibroblasts passage 60 (HCA60)
Experimental: In this example, human diploid fibroblasts (HCA cells of various passage levels: passage 20—designated HCA20; passage 40—designated HCA40; passage 60—designated HCA60) were stained for β-galactosidase activity. The medium used for the cell cultivation was removed, the cells were washed twice in […], and fixed in 2-3 ml of fixing solution comprised of a 2% formaldehyde and 0.2% glutaraldehyde in PBS. The cells were incubated at room temperature for 5 minutes, and then washed twice with PBS. The cells were subsequently incubated at 37° C.

[2] = test system: breast carcinoma cell line MCF-7; test: In vitro cytotoxicity, Calcein AM assay; conditions: read-out: GI50 MCF7; MCF7, 72 hours, Calcein AM
excised wheat leaf tips = test: Antisenescence test, retention of chlorophyll in excised wheat leaf tips; design: species or system Triticum aestivum cv. Hereward; conditions: for activity (%) [10^−4 mol · l^−1 BAP = 100%]: retention of chlorophyll in excised wheat leaf tips at the concentration with highest activity, 10 replicate determinations; for concentration with highest activity: retention of chlorophyll in excised wheat leaf tips, tested range 10^−8 M to 10^−4 M, 96 h in the dark at 25° C.
Experimental: Testing of antisenescence properties of novel cytokinin compounds on wheat leaf segments. Seeds of winter wheat, Triticum aestivum cv. Hereward, were washed under running water for 24 hours and then sown on vermiculite soaked with the Knop's solution. They were placed in the grow chamber at 25° C. with a 16 h-8 h light period at 50 mmol.m^−2.s^−1. After 7 days, the first leaf was fully developed and the second leaf had started to grow. A 35 mm long tip section of the first leaf, was removed from each of 5 seedlings and trimmed slightly to a combined weight of 100 mg. The basal ends of the five leaf tips were placed in the wells of a microtiter polystyrene plate containing […] of the solution of the tested compound each. The entire plate was inserted into a plastic box lined with paper tissues soaked with distilled water to prevent leaf sections from drying out. After 96 h incubation in the dark at 25° C., the leaves were removed and chlorophyll was extracted by heating at 80° C. for 10 min in 5 ml of 80% ethanol (v/v). The sample volume was then restored to 5 ml by the addition of 80% ethanol (v/v). The absorbance of the extract was recorded at 665 nm. In addition, chlorophyll extracts from fresh leaves and leaf tips incubated in deionized water were measured. […] Relative activity of the compound at this concentration was calculated (Table 7). The activity obtained for 10^−4 M 6-benzylaminopurine (BAP) was defined as 100%. The values shown are means of five replicates and the whole experiment was repeated twice.
(§1) The compounds to be tested were dissolved in dimethylsulfoxide (DMSO) and the solution brought up to 10^−3 M with distilled water.

human osteosarcoma HOS = test: In vitro cytotoxicity, Calcein AM assay; conditions: read-out: GI50 HOS; HOS, 72 hours, Calcein AM
Experimental: (§2) Because only metabolically active cells cleave Calcein AM, these assays detect viable cells exclusively. The quantity of reduced Calcein AM corresponds to the number of vital cells in the culture.
(§3) The cells were maintained in Nunc/Corning 80 cm^2 plastic tissue culture flasks and cultured in cell culture medium (DMEM with 5 g/l glucose, 2 mM glutamine, 100 U/ml penicillin, 100 mg/ml streptomycin, 10% fetal calf serum and sodium bicarbonate).
(§4) The cell suspensions that were prepared and diluted according to the particular cell type and the expected target cell density (2,500-30,000 cells per well based on cell growth characteristics) were added by pipette (80 ml) into 96-well microtiter plates. Inoculates were allowed a pre-incubation period of 24 hours at 37° C. and 5% CO2 for stabilization. Four-fold dilutions of the intended test concentration were added at time zero in 20 ml aliquots to the microtiter plate wells. Usually, the compound tested was evaluated at six 4-fold dilutions. […] All drug concentrations were examined in duplicate. Incubations of cells with the tested compounds lasted for 72 hours at 37° C., in a 5% CO2 atmosphere and 100% humidity. At the end of the incubation period, the cells were assayed by using Calcein AM. Ten microliters of the stock solution were pipetted into each well and incubated for 1 hour. Fluorescence (FD) was measured with the Labsystem FIA Reader Fluoroscan Ascent (UK).

[3] = test system: Amaranthus caudatus cotyledon/hypocotyl explants; test: Amaranthus bioassay (betacyanin content); design: species or system Amaranthus caudatus var. atropurpurea; conditions: for concentration with highest activity: betacyanin content after 48 h incubation, tested 10^−8 M to 10^−4 M; for Activity (%) [10^−5 mol · l^−1 BAP = 100%]: betacyanin content at the concentration with highest activity, 10^−5 M BAP = 100%
Experimental: Testing of novel compounds for typical cytokinin activity in Amaranthus bioassay. A standard Amaranthus bioassay was performed with several modifications. The seeds of Amaranthus caudatus var. atropurpurea were surface-sterilized in 10% (w/v) N-chlorobenzenesulfonamide for 10 min and washed 5 times with deionized water. They were placed in 14 cm Petri dishes containing paper tissues saturated with deionized water. After 72 h of cultivation at 25° C. in darkness, the roots of the seedlings were cut off. The explants, consisting of two cotyledons and hypocotyls, were placed in 5 cm Petri dishes onto two layers of filter paper soaked with 1 ml of the incubation medium containing 10 mmol of NA2HPO4—KH2PO4, pH 6.8, 5 mmol of tyrosine and the compound to be tested. There were 20 explants per dish. The procedure was carried out under a green safe light in a darkroom. […] The concentration of betacyanin was determined from the absorbencies at 537 nm and 620 nm as follows: DA=A537 nm−A620 nm. […] Relative activity of the compound at this concentration was calculated. The activity obtained for 10^−5 M 6-benzylaminopurine (BAP) was defined as 100%.
as §1

[4] = test system: cytokinin-dependent tobacco callus Nicotiana tabacum L. cv. Wisconsin 38; test: Cytokinin activity in tobacco callus bioassay; format: cell-based; conditions: for concentration with highest activity: growth of tobacco callus, four weeks of cultivation, tested 10^−8 M to 10^−4 M; for Activity (%) [10^−5 mol · l^−1 BAP = 100%]: increase of fresh callus weight at the concentration with highest activity, 10^−5 M BAP = 100%
Experimental: Estimation of cytokinin biological activity of novel compounds in callus bioassay. Cytokinin-dependent tobacco callus Nicotiana tabacum L. cv. […] Subcultivation was carried out every three weeks. Fourteen days before the bioassay, the callus tissue was transferred to the media without the compound tested. The biological activity was determined from the increase of the fresh callus weight after four weeks of cultivation. Five replicates were prepared for each concentration of the compound tested and the entire test was repeated twice. […] The relative activity of the compound at this concentration was calculated (Table 8). […] The compounds to be tested were dissolved in dimethylsulfoxide (DMSO) and the solution brought up to 10^−3 M with distilled water. This stock solution was further diluted with the respective media used for the biotest to a concentration ranging from 10^−8 M to 10^−4 M.

mouse fibroblasts NIH3T3 = test: In vitro cytotoxicity, Calcein AM assay; conditions: read-out: GI50 NIH-3T3; NIH-3T3, 72 hours, Calcein AM
[5] = test system: promyelocytic HL-60 leukemia; test: In vitro cytotoxicity, Calcein AM assay; conditions: read-out: GI50 HL60; HL60, 72 hours, Calcein AM
Experimental: as §2, §3, §4

Compound	SENESCENT CELLS (%) HCA20 [1]	SENESCENT CELLS (%) HCA40 [1]	SENESCENT CELLS (%) HCA60 [1]	GI50 [2]	activity (%) [10^−4 mol · l^−1 BAP = 100%] (excised wheat leaf tips)	concentration with highest activity (excised wheat leaf tips)	GI50 (human osteosarcoma HOS)	concentration with highest activity [3]	Activity (%) [10^−5 mol · l^−1 BAP = 100%] [3]	concentration with highest activity [4]	Activity (%) [10^−5 mol · l^−1 BAP = 100%] [4]	GI50 (mouse fibroblasts NIH3T3)	GI50 [5]
COc1ccc(CNc2ncnc3c2ncn3C2CCCCO2)cc1O (stereo not shown)	5%	7%	29%	> 167 µM	47%	10^−4 mol · l^−1	> 167 µM	10^−4 mol · l^−1	41%	10^−6 mol · l^−1	55%	> 167 µM	> 167 µM
CCOC(C)n1cnc2c(NC/C=C(\C)CO)ncnc21 (stereo not shown)	–	–	–	> 167 µM	92.5%	10^−4 mol · l^−1	> 167 µM	10^−4 mol · l^−1	92.5%	10^−4 mol · l^−1	102.8%	> 167 µM	> 167 µM
C/C(=C\CNc1ncnc2c1ncn2CCCCCl)CO	–	–	–	> 167 µM	73.8%	10^−4 mol · l^−1	> 167 µM	10^−4 mol · l^−1	123.8%	10^−4 mol · l^−1	103.5%	> 167 µM	> 167 µM
C/C(=C\CNc1ncnc2c1ncn2C1CCCO1)CO (stereo not shown)	–	–	–	> 167 µM	45%	10^−4 mol · l^−1	> 167 µM	10^−4 mol · l^−1	117%	10^−5 mol · l^−1	89%	> 167 µM	> 167 µM
Oc1ccccc1Nc1ncnc2c1ncn2C1CCCCO1 (stereo not shown) [2-hydroxyanilino / tetrahydropyran-2-yl]	4%	6%	29%	–	11%	10^−4 mol · l^−1	–	10^−4 mol · l^−1	65%	10^−5 mol · l^−1	30%	–	–
Oc1cccc(Nc2ncnc3c2ncn3C2CCCCO2)c1 (stereo not shown) [3-hydroxyanilino / tetrahydropyran-2-yl]	5%	4%	28%	–	23%	10^−4 mol · l^−1	–	10^−4 mol · l^−1	122%	10^−5 mol · l^−1	65%	–	–
